Laboratory results taken from PubChem BioAssay AID1918940 (Molecular Pharmacology Branch, DTP, NCI, 2023).
“And” between values parts separate entries of the source, which are not always exact repeats. Equal values may be shown once.

Tested on: NCI-H211 complex spheroid viability
Experiment: Anticancer human tumor NCI-H211 cell line growth inhibition [LSD1];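 further: luminescent viability read after seven days of drug exposure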;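 on viability, T/C: 100% = DMSO vehicle control viability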
Conditions: for viability, T/C: stronger effect = lower value; active means viability on the fitted dose curve at most 10% of control; inactive means the rest
Outline: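 Complex spheroids of tumor cells with HUVEC and human MSCs, exposed to iadademstat combined with other agents. Each agent tested in half-log steps from near clinical Cmax (else 10 microM top), DMSO ≤0.25%.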

[1] = curve of first compound, second compound 0.1 µM
[2] = curve of first compound, second compound 0.316 µM
[3] = curve of first compound, second compound 1 µM
[4] = curve of first compound, second compound 3.16 µM
[5] = curve of first compound, second compound 10 µM
[6] = second compound 0.1 µM, first compound 0.0316 µM
[7] = second compound 0.1 µM, first compound 0.1 µM
[8] = second compound 0.1 µM, first compound 0.316 µM
[9] = second compound 0.1 µM, first compound 1 µM
[10] = second compound 0.1 µM, first compound 3.16 µM
[11] = second compound 0.1 µM, first compound 10 µM
[12] = second compound 0.316 µM, first compound 0.0316 µM
[13] = second compound 0.316 µM, first compound 0.1 µM
[14] = second compound 0.316 µM, first compound 0.316 µM
[15] = second compound 0.316 µM, first compound 1 µM
[16] = second compound 0.316 µM, first compound 3.16 µM
[17] = second compound 0.316 µM, first compound 10 µM
[18] = second compound 1 µM, first compound 0.0316 µM
[19] = second compound 1 µM, first compound 0.1 µM
[20] = second compound 1 µM, first compound 0.316 µM
[21] = second compound 1 µM, first compound 1 µM
[22] = second compound 1 µM, first compound 3.16 µM
[23] = second compound 1 µM, first compound 10 µM
[24] = second compound 3.16 µM, first compound 0.0316 µM
[25] = second compound 3.16 µM, first compound 0.1 µM
[26] = second compound 3.16 µM, first compound 0.316 µM
[27] = second compound 3.16 µM, first compound 1 µM
[28] = second compound 3.16 µM, first compound 3.16 µM
[29] = second compound 3.16 µM, first compound 10 µM
[30] = second compound 10 µM, first compound 0.0316 µM
[31] = second compound 10 µM, first compound 0.1 µM
[32] = second compound 10 µM, first compound 0.316 µM
[33] = second compound 10 µM, first compound 1 µM
[34] = second compound 10 µM, first compound 3.16 µM
[35] = second compound 10 µM, first compound 10 µM
[36] = second compound 0.1 µM, first compound 0.00949 µM
[37] = second compound 0.1 µM, first compound 0.03 µM
[38] = second compound 0.1 µM, first compound 0.0949 µM
[39] = second compound 0.1 µM, first compound 0.3 µM
[40] = second compound 0.316 µM, first compound 0.00949 µM
[41] = second compound 0.316 µM, first compound 0.03 µM
[42] = second compound 0.316 µM, first compound 0.0949 µM
[43] = second compound 0.316 µM, first compound 0.3 µM
[44] = second compound 1 µM, first compound 0.00949 µM
[45] = second compound 1 µM, first compound 0.03 µM
[46] = second compound 1 µM, first compound 0.0949 µM
[47] = second compound 1 µM, first compound 0.3 µM
[48] = second compound 3.16 µM, first compound 0.00949 µM
[49] = second compound 3.16 µM, first compound 0.03 µM
[50] = second compound 3.16 µM, first compound 0.0949 µM
[51] = second compound 3.16 µM, first compound 0.3 µM
[52] = second compound 10 µM, first compound 0.00949 µM
[53] = second compound 10 µM, first compound 0.03 µM
[54] = second compound 10 µM, first compound 0.0949 µM
[55] = second compound 10 µM, first compound 0.3 µM

O=C(c1cc(Cc2n[nH]c(=O)c3ccccc23)ccc1F)N1CCN(C(=O)C2CC2)CC1 + NC1CCC(NC2CC2c2ccccc2)CC1
inactive: viability, T/C [6] 41.8% | viability, T/C [7] 26.4% | viability, T/C [12] 44.4% | viability, T/C [13] 27.7% | viability, T/C [18] 41.1% | viability, T/C [19] 27.1% | viability, T/C [24] 35.5% | viability, T/C [25] 21.8% | viability, T/C [30] 18.2%
< 31.6 nM: IC50 [1] | IC50 [2] | IC50 [3] | IC50 [4] | IC50 [5]
active: viability, T/C [8] 6.09% | viability, T/C [9] 2.71% | viability, T/C [10] 2.42% | viability, T/C [11] 2.07% | viability, T/C [14] 6.03% | viability, T/C [15] 2.23% | viability, T/C [16] 2.6% | viability, T/C [17] 2.2% | viability, T/C [20] 5.68% | viability, T/C [21] 2.69% | viability, T/C [22] 3.18% | viability, T/C [23] 2.72% | viability, T/C [26] 4.95% | viability, T/C [27] 1.97% | viability, T/C [28] 2.43% | viability, T/C [29] 2.46% | viability, T/C [31] 11.2% | viability, T/C [32] 1.78% | viability, T/C [33] 1.3% | viability, T/C [34] 1.25% | viability, T/C [35] 1.37%

O=C(C=Cc1cccc(S(=O)(=O)Nc2ccccc2)c1)NO
3.38% and 8.21%: viability, T/C (compound 0.03 µM)
active: viability, T/C (compound 0.0949 µM) 2.69% and 7.91% | viability, T/C (compound 0.3 µM) 2.15% and 6.02% | viability, T/C (compound 0.949 µM) 0.94% and 1.35% | viability, T/C (compound 3 µM) 0.17% and 0.22%
< 9.49 nM: IC50 (curve of compound)
inactive: viability, T/C (compound 0.00949 µM) 28.4% and 18.3%

COc1ccc([C@@H](O)c2cc(-c3ncnc4cc(N5CCOCC5)ccc34)c(F)cc2Cl)nn1 + NC1CCC(NC2CC2c2ccccc2)CC1
< 31.6 nM: IC50 [5]
3700 nM: IC50 [1] | IC50 [4]
3480 nM: IC50 [3]
inactive: viability, T/C [6] 72.7% | viability, T/C [7] 63% | viability, T/C [8] 69.5% | viability, T/C [9] 74.2% | viability, T/C [10] 55.8% | viability, T/C [11] 13.7% | viability, T/C [12] 66.9% | viability, T/C [13] 69.7% | viability, T/C [14] 73.2% | viability, T/C [15] 71.2% | viability, T/C [16] 52.1% | viability, T/C [17] 12.6% | viability, T/C [18] 69.2% | viability, T/C [19] 63.6% | viability, T/C [20] 65.3% | viability, T/C [21] 81.7% | viability, T/C [22] 53.4% | viability, T/C [23] 11.3% | viability, T/C [24] 73.6% | viability, T/C [25] 63.3% | viability, T/C [26] 64% | viability, T/C [27] 81.5% | viability, T/C [28] 56.1% | viability, T/C [29] 11.1% | viability, T/C [30] 36.9% | viability, T/C [31] 36.7% | viability, T/C [32] 36.8% | viability, T/C [33] 54.3% | viability, T/C [34] 49%
active: viability, T/C [35] 8.03%
3370 nM: IC50 [2]

CC[C@@]1(O)C(=O)OCc2c1cc1n(c2=O)Cc2cc3c(CN(C)C)c(O)ccc3nc2-1
inactive: viability, T/C (compound 0.000316 µM) 66.6% and 67% | viability, T/C (compound 0.001 µM) 11.4% and 13.2%
0.447 nM and 0.455 nM: IC50 (curve of compound)
active: viability, T/C (compound 0.00316 µM) 2.8% and 5.22% | viability, T/C (compound 0.01 µM) 2.3% and 5.28% | viability, T/C (compound 0.0316 µM) 2.56% and 5.04% | viability, T/C (compound 0.1 µM) 0.87% and 3.38%

Nc1ccn(C2OC(CO)C(O)C2(F)F)c(=O)n1 (stereo not drawn) + NC1CCC(NC2CC2c2ccccc2)CC1
< 0.949 nM: IC50 [1] | IC50 [2] | IC50 [3] | IC50 [4] | IC50 [5]
active: viability, T/C (second compound 0.1 µM, first compound 0.000949 µM) 2.51% | viability, T/C (second compound 0.1 µM, first compound 0.003 µM) 2.16% | viability, T/C [36] 2.36% | viability, T/C [37] 1.86% | viability, T/C [38] 2.26% | viability, T/C [39] 2.41% | viability, T/C (second compound 0.316 µM, first compound 0.000949 µM) 2.59% | viability, T/C (second compound 0.316 µM, first compound 0.003 µM) 2.18% | viability, T/C [40] 2.35% | viability, T/C [41] 2.12% | viability, T/C [42] 2.8% | viability, T/C [43] 2.37% | viability, T/C (second compound 1 µM, first compound 0.000949 µM) 2.5% | viability, T/C (second compound 1 µM, first compound 0.003 µM) 1.98% | viability, T/C [44] 2.28% | viability, T/C [45] 2.01% | viability, T/C [46] 2.14% | viability, T/C [47] 2.46% | viability, T/C (second compound 3.16 µM, first compound 0.000949 µM) 2.06% | viability, T/C (second compound 3.16 µM, first compound 0.003 µM) 3.05% | viability, T/C [48] 2.05% | viability, T/C [49] 1.95% | viability, T/C [50] 2.15% | viability, T/C [51] 2.13% | viability, T/C (second compound 10 µM, first compound 0.000949 µM) 1.03% | viability, T/C (second compound 10 µM, first compound 0.003 µM) 0.96% | viability, T/C [52] 1.05% | viability, T/C [53] 0.79% | viability, T/C [54] 0.64% | viability, T/C [55] 1.61%

Cn1ncnc1C1c2n[nH]c(=O)c3cc(F)cc(c23)NC1c1ccc(F)cc1 (stereo not drawn)
active: viability, T/C (compound 0.01 µM) 5.27% and 6.62% | viability, T/C (compound 0.0316 µM) 8.07% and 5.97% | viability, T/C (compound 0.1 µM) 3.43% and 6.43%
inactive: viability, T/C (compound 0.000316 µM) 102% and 103% | viability, T/C (compound 0.001 µM) 94.9% and 82.6% | viability, T/C (compound 0.00316 µM) 44.8% and 29%
2.79 nM and 2.01 nM: IC50 (curve of compound)

O=C(C=Cn1cnc(-c2cc(C(F)(F)F)cc(C(F)(F)F)c2)n1)NNc1cnccn1
inactive: viability, T/C (compound 0.00316 µM) 45.9% and 53.7% | viability, T/C (compound 0.01 µM) 24% and 37.6% | viability, T/C (compound 0.0316 µM) 11.7% and 14.6%
active: viability, T/C (compound 0.1 µM) 4.91% and 5.02% | viability, T/C (compound 0.316 µM) 1.61% and 2.32% | viability, T/C (compound 1 µM) 1.37% and 2.1%
< 3.16 nM and 4.13 nM: IC50 (curve of compound)

O=C(C=Cc1cccc(S(=O)(=O)Nc2ccccc2)c1)NO + NC1CC1c1ccc(-c2cccc(O)c2)cc1
< 9.49 nM: IC50 [1] | IC50 [2] | IC50 [3] | IC50 [4] | IC50 [5]
inactive: viability, T/C [36] 14.7% | viability, T/C [40] 13.9% | viability, T/C [44] 13.9% | viability, T/C [45] 8.11% | viability, T/C [48] 15.4% | viability, T/C [52] 13.5%
active: viability, T/C [37] 8.14% | viability, T/C [38] 7.87% | viability, T/C [39] 3.8% | viability, T/C (second compound 0.1 µM, first compound 0.949 µM) 0.63% | viability, T/C (second compound 0.1 µM, first compound 3 µM) 0.14% | viability, T/C [41] 7.23% | viability, T/C [42] 7.38% | viability, T/C [43] 4.67% | viability, T/C (second compound 0.316 µM, first compound 0.949 µM) 0.66% | viability, T/C (second compound 0.316 µM, first compound 3 µM) 0.16% | viability, T/C [46] 9.23% | viability, T/C [47] 4.38% | viability, T/C (second compound 1 µM, first compound 0.949 µM) 0.39% | viability, T/C (second compound 1 µM, first compound 3 µM) 0.17% | viability, T/C [49] 7.28% | viability, T/C [50] 7.21% | viability, T/C [51] 4.21% | viability, T/C (second compound 3.16 µM, first compound 0.949 µM) 0.29% | viability, T/C (second compound 3.16 µM, first compound 3 µM) 0.16% | viability, T/C [53] 6.43% | viability, T/C [54] 7.11% | viability, T/C [55] 3.82% | viability, T/C (second compound 10 µM, first compound 0.949 µM) 0.24% | viability, T/C (second compound 10 µM, first compound 3 µM) 0.27%
